Results taken from US10682320B2, “Method for inhibiting osteoclast development” (West Virginia University, priority 2012, dated 2020).

What was measured:
[1] = cited from earlier work
[2] = tested on: human monocytes differentiating into osteoclasts; assay: Human osteoclast differentiation in vitro (multinucleation, TRAP); format: cell-based; settings: 8 days after RANKL
Procedure: Human monocytes were isolated from normal buffy coat cells (60-80 ml) obtained with approval of institutional review boards by separation from donor blood, the white-cell depleted blood retained for clinical use. Human monocyte culture and differentiation were as reported (see, Yaroslayskly B B, Zhang Y, Kalla S E, Garcia P V, Sharrow A C, Li Y, Zaidi M, Wu C, Blair H C, “NO-dependent osteoclast motility: Reliance on cGMP-dependent protein kinase I and VASP”, J Cell Sci I, Vol. 18, pages 5479-5487, 2005). Briefly, human monocytes cells were isolated from buffy coat on ficoll lymphocyte separation media and cultured at ˜6×10^5 cells per cm^2 in monocyte maintenance medium, Dulbecco's modified essential medium (DMEM) with 20 ng/ml of human m-CSF and 10% FBS, for 24 hours (h). After 24 h in culture, the medium was changed to osteoclast differentiation medium containing in addition of human 50 ng/ml of RANKL, with the additional inhibitors or activators as specified in results. Human osteoclast cultures were generally maintained for a minimum of 7 days before analysis, or longer times as specified in results.
The effect of DCPA on human osteoclast differentiation 8 days after addition of RANKL was evaluated.

[3] = target: CRAC channel (Homo sapiens, UniProt Q13586); assay: CRAC channel activity by Fura-2 fluorescence in Jurkat cells after thapsigargin; format: cell-based; set-up: endogenous in cells; host or cells: Jurkat cells
Chain of CRAC channel (Q13586 23-685): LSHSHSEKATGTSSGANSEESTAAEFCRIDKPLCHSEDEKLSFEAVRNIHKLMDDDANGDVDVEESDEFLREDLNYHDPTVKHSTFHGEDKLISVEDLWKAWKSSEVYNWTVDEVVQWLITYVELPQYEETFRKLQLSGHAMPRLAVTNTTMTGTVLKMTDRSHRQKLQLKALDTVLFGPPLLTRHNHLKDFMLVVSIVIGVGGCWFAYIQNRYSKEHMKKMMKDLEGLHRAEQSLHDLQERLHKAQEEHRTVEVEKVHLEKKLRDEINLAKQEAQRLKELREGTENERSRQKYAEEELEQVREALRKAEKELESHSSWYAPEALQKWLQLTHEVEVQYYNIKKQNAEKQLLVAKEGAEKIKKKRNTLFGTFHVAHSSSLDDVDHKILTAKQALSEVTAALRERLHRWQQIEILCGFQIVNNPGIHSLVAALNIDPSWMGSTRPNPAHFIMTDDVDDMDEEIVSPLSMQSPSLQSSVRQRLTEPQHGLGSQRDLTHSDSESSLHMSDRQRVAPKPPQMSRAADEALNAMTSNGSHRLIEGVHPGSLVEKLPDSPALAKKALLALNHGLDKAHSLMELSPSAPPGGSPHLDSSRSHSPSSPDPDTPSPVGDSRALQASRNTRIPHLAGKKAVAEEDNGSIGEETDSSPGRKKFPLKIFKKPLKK
Procedure: Ratiometric imaging of intracellular Ca^2+ using fura-2 was as described (see, Zhou et al., 2009 above). Briefly, cells on coverslips, in cation safe solution (107 mM NaCl, 7.2 mM KCl, 1.2 mM MgCl2, 11.5 mM glucose, 20 mM HEPES-NaOH, pH 7.2) were loaded with fura-2 acetoxymethyl ester (2 μM) for 30 min at 24° C. Cells were washed and fluorescent probe was allowed to de-esterify for 30 min. From signal remaining after saponin permeabilization, ˜85% of the dye was confined to the cytoplasm (see, Ma H-T, Patterson R L. van Rossum D B. Birnbaumer L, Mikoshiba K, Gill D L, “Requirement of the inositol trisphosphate receptor for activation of store-operated Ca^2+ channels”, Science, Vol. 287, pages 1647-1651, 2000). Ca^2+ measurements were made using a Leica DMI 6000B fluorescence microscope controlled by Slidebook Software. Fluorescence emission at 505 nm was monitored while alternating between 340 and 380 nm excitation wavelengths at a frequency of 0.67 Hz; intracellular Ca^2+ measurements are shown as 340/380 nm emission ratios obtained from groups (35-45) of single cells. Measurements shown are representative a minimum of three independent experiments.
N-(3,4-dibromophenyl)propanamide]. Jurkat cells, a T cell line that is very sensitive to DCPA, was cultured with the indicated compounds, DCPA, DBPA, and ethanol (EtOH). CRAC channel activity was monitored using Fura-2 fluorescence using standard known techniques. Cells were incubated in each composition at 100 uM for 10 minutes prior to addition of the SERCA inhibitor thapsigargin (Tg) to induce SOCe. Decreased CRAC channel activity is clearly evident with DCPA and DBPA.
Jurkat cells, a T cell line that is very sensitive to DCPA, was cultured with the indicated compositions of the present invention, namely, DNI, NM Propanil, and DNMNI. CRAC channel activity was monitored using Fura-2 fluorescence using standard known techniques. Cells were incubated in each composition at 100 uM for 10 minutes prior to addition of the SERCA inhibitor thapsigargin (Tg) to induce SOCe. Decreased CRAC channel activity is clearly evident with each of the compositions of the present invention. […] Each of the compositions of this invention achieve the results achieved with the known DCPA but without the burden of toxicity of DCPA that would accompany further metabolism of DCPA.

[4] = target: T1, CRAC channel (Orai I / STIM I) (Homo sapiens, UniProt Q13586); assay: Whole cell CRAC current (Icrac) in HEK293 cells expressing Orai I and YFP-STIM I; format: cell-based; settings: whole cell clamp
T1 construct: expressed in transfected cells; host or cells: HEK293
T1 sequence (Q13586 23-685): as above
Procedure: Analysis was performed in HEK293 cells stably expressing Orai I and transfected with STIM I YFP used conventional whole cell voltage recordings as described (see, Wang Y, Deng X, Zhou Y, Hendron E, Mancarelia S, Ritchie M F. Tang X D, Baba Y, Kurosaki T, Mori Y, Soboloff J, Gill D L., “STIM protein coupling in the activation of Orai channels”, Proc Natl Acad Sci USA Vol. 106, pages 7391-7396, 2009). Immediately after establishment of the whole-cell electrode seal, voltage ramps spanning from—100 to +100 mV in 50 msec were delivered from a holding potential of 0 mV at a rate of 0.5 Hz. A 10 mV junction potential compensation was applied. […]
The haloanilide DCPA blocks store-operated Ca^2+ channel function in Jurkat cells with no effect on ER Ca^2+ content. […] To address this, the present inventor examined HEK293 cells stably expressing Orai I and transiently transfected with YFP-STIMI and measured the effect of DCPA on CRAC current or Icrac. CRAC channel activity was measured in the whole cell clamp position after passively depleting Ca^2+ stores via the presence of 10 mM EGTA in the patch pipette. […]

[5] = target: T2, STIM I/Orai I interaction (Homo sapiens, UniProt Q13586); assay: 2-APB-induced STIM I ct translocation to plasma membrane; format: cell-based; settings: DCPA 100 μM, 2-APB 50 μM
T2 construct: the cytosolic fragment of STIM I (STIM 1 ct); expressed in transfected cells
T2 sequence (Q13586 235-685 limits assumed): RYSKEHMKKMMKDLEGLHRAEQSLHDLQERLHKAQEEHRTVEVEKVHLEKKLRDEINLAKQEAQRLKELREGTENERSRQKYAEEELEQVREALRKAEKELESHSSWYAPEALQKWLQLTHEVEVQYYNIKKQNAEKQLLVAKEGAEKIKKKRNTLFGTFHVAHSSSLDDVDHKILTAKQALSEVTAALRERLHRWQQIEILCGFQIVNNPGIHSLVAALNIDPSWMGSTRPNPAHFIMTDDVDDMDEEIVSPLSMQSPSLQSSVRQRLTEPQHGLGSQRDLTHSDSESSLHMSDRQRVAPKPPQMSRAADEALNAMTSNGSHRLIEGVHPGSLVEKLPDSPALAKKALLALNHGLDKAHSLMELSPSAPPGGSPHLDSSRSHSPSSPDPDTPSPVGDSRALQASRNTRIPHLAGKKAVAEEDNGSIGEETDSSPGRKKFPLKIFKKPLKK
Procedure: HEK293 cells, maintained in DMEM with 10% FBS, were transfected with YFP-STIM I using Lipofectamine 2000 (Invitrogen, Carlsbad, Calif.) for 5 h (37° C.; 5% CO2) followed by a 24-h recovery. Cells were placed in 140 mM NaCl, 5 mM KCl, 1 mM MgCl2, 10 mM glucose, 15 mM HEPES, 0.1% BSA, 2 mM CaCl2 and analyzed by confocal microscopy for STIM I puncta formation using a Nikon phase-fluorescence microscope with CCD detectors (Diagnostic instruments, Sterling Heights, Mich.). Phase or transmitted light microscopy used 10-40× objectives and red, green, and blue filters to assemble color images. Fluorescence images used 1.4 NA 40× oil objectives. Red fluorescence used excitation at 530-560 nm, a 575 nm dichroic minor, and 580-650 nm emission filter. Transfection data were analyzed using Nikon NIS Elements Imaging Software. The effect of DCPA on STIM I/Orai I association was determined in wild-type HEK293 cells transfected with STIM I-YFP as described in Wang Y, Deng X, Zhou Y, Hendron E, Mancarelia S, Ritchie M F, Tang X D, Baba Y, Kurosaki T, Mori Y, Soboloff J, Gill DL, “STIM protein coupling in the activation of Orai channels”, Proc Natl Acad Sci USA, Vol. 106, pages 7391-7396, 2009. Experiments were performed on a Leica DMI 6000B fluorescence microscope controlled by Slidebook Software (Intelligent Imaging Innovations, Denver, Colo.).

CCC(=O)Nc1ccc(Cl)c(Cl)c1 [DCPA, N-(3,4-dichlorophenyl)propanamide]
doses mice can tolerate [1]: > 100 mg/kg | doses producing frank immunotoxicity ([1]; mice): > 150 mg/kg | number of multinucleated TRAP+ cells ([2]; 1.0 μM): minimal effect | number of multinucleated cells ([2]; 10 and 100 μM): marked progressive reduction | TRAP activity ([2]; up to highest concentration (100 μM)): no differences | effect on ER Ca2+ content [3]: no effect | store-operated Ca2+ channel function [3]: blocks | CRAC channel activity ([3]; 100 uM, 10 minutes before thapsigargin): Decreased | current-voltage relationship versus control cells [4]: did not show significant differences | time for CRAC current to return to baseline after break-in ([4]; 10 mM EGTA in pipette): less than 4 minutes | ability of 2-APB to induce STIM I ct translocation to the plasma membrane [5]: dramatically attenuated
